The subject of one experiment is Pyricularia oryzae. The experiment is described as follows: microbe, parasite or virus in culture. The experiment is classed as cell-based. To be noted: for inhibition of growth at 300 ppm: 168 h, read-out: % control compared to the untreated check (radial growth); for inhibition at 300 ppm: read-out: PYRIOR % inhibition.
For another experiment, the system named is Rhizoctonia solani. The experiment can be described thus: Rhizoctonia solani (rice sheath blight/potato black scurf) in vitro test, radial growth on Potato Dextrose Agar. Format: cell-based. Particulars: for inhibition of growth at 300 ppm: 168 h, seven days, 25° C., read-out: % control compared to the untreated check (radial growth); for inhibition at 300 ppm: Table 3 comparison, read-out: RHIZSO % inhibition.

In a further experiment the test system is Botrytis cinerea. The experiment can be described thus: Botrytis cinerea (gray mold) in vitro test, radial growth on Potato Dextrose Agar. Format: cell-based. To be noted: for inhibition of growth at 300 ppm: 168 h, seven days, 22° C., read-out: % (control) compared to the untreated check (radial growth); for inhibition at 300 ppm: Table 3 comparison, read-out: BOTRCI % inhibition.

The next experiment concerns Alternaria solani. The experiment is described as follows: Alternaria solani (early blight of tomato/potato) in vitro test, radial growth on Potato Dextrose Agar. Format: cell-based. To be noted: for inhibition of growth at 300 ppm: 168 h, seven days, 25° C., read-out: % control compared to the untreated check (radial growth); for inhibition at 300 ppm: Table 3 comparison, read-out: ALTESO % inhibition.

The test system of the next experiment is Colletotrichum capsici. The experiment is described as follows: Colletotrichum capsici (anthracnose) in vitro test, radial growth on Potato Dextrose Agar. Format: cell-based. To be noted: Colletotrichum truncatum; for inhibition of growth at 300 ppm: 168 h, seven days, 25° C., read-out: % control compared to the untreated check (radial growth); for inhibition at 300 ppm: Table 3 comparison, read-out: COLLCA % inhibition.

The next experiment deals with Septoria lycopersici. The experiment can be described thus: Septoria lycopersici (leaf spot of tomato) in vitro test, radial growth on Potato Dextrose Agar. To be noted: 168 h, seven days, 25° C., read-out: % control compared to the untreated check (radial growth). The experiment is classed as cell-based.
Experiment [1] deals with Fusarium culmorum. The experiment is described as follows: Fusarium culmorum (foot rot of cereals) in vitro test, radial growth on Potato Dextrose Agar. To be noted: Fusarium culmorum; for inhibition of growth at 300 ppm: 168 h, read-out: % control compared to the untreated check (radial growth); for inhibition at 300 ppm: Table 3 comparison, read-out: FUSACU % inhibition. Format: cell-based.

The subject of another experiment is Botrytis cinera. The experiment is described as follows: Greenhouse Botrytis cinera test in tomato, preventive. To be noted: 24 h, plants sprayed one day before inoculation, read-out: Efficacy (% control), disease severity vs untreated check. Format: in vivo.
The test system of a further experiment is Corynespora cassicola. The experiment can be described thus: Table 3 comparative % inhibition, Corynespora cassicola (CORYCA). Format: cell-based. Particulars: Table 3 comparison.
The test system of experiment [2] is Fusarium culmorum. The experiment can be described thus: Greenhouse Fusarium culmorum test in wheat, preventive. Particulars: 24 h, read-out: Efficacy (% control), disease severity vs untreated check. The experiment is classed as in vivo. The gist of the method:
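Young greenhouse wheat sprayed preventively at stated rates (compounds in 2% DMSO/acetone, diluted in water), inoculated one day later with 2×10^6 Fusarium culmorum spores in 2% malt, held at 24 °C, 80-90% RH. Disease severity (0-100%) rated 3, 7, 10 and 15 days after application; % control versus untreated, phytotoxicity also recorded.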

We go through three compounds from patent publication US11155517B2, “4-substituted phenylamine derivatives and their use to protect crops by fighting undesired phytopathogenic micoorganisms” (PI INDUSTRIES LTD., priority 2016, dated 2021).

Molecules are shown by their SMILES. Where only a bound is given, the exact number is not on record here.

By inhibition is commonly meant the percentage by which the read-out fell short of the control. Consider `CCN(C)C=Nc1cc(C)c(Cc2ccccc2F)cc1C` [Compound 15, N-ethyl-N′-(4-(2-fluorobenzyl)-2,5-dimethylphenyl)-N-methylformimidamide], for which the inhibition of growth at 300 ppm in the experiment with Pyricularia oryzae is above 75%; in the experiment on Rhizoctonia solani, above 80%; in the experiment on Botrytis cinerea, above 80%; in the experiment on Alternaria solani, above 75%; in the experiment with Colletotrichum capsici, above 80%; with Septoria lycopersici it was above 70%. For the same compound, the inhibition of growth at 300 ppm with Fusarium culmorum [1] was 75%. The inhibition at 300 ppm in the experiment with Pyricularia oryzae, in the experiment on Rhizoctonia solani, in the experiment with Botrytis cinerea, with Alternaria solani, in the experiment with Colletotrichum capsici and in the experiment with Fusarium culmorum [1] was 100% throughout. This compound also had an inhibition at 300 ppm in the experiment on Corynespora cassicola of 100%. The pest or weed control at 500 ppm with Botrytis cinera lay within 70 to 100%.

In the case of `CCN(C)C=Nc1cc(C)c(Cc2ccccc2F)cc1Cl` [Compound 16, N′-(2-chloro-4-(2-fluorobenzyl)-5-methylphenyl)-N-ethyl-N-methylformimidamide], the inhibition of growth at 300 ppm in the experiment with Pyricularia oryzae is above 75%; with Rhizoctonia solani, above 80%; in the experiment on Botrytis cinerea, above 80%; with Alternaria solani it was above 75%; in the experiment with Colletotrichum capsici, above 80%; with Septoria lycopersici, above 70%. Moreover, the inhibition of growth at 300 ppm with Fusarium culmorum [1] was 75%. Further, the inhibition at 300 ppm in the experiment on Pyricularia oryzae, with Rhizoctonia solani, in the experiment with Botrytis cinerea, in the experiment with Alternaria solani, with Colletotrichum capsici and with Fusarium culmorum [1] was 100% each time. Also, in the experiment with Corynespora cassicola, at 300 ppm the inhibition was 100%. Besides, the pest or weed control at 500 ppm with Fusarium culmorum [2] was 70 to 100%.

For `CCN(C)C=Nc1cc(C)c(Cc2ccccc2)cc1C` [Compound 1, N′-(4-benzyl-2,5-dimethylphenyl)-N-ethyl-N-methylformimidamide], the inhibition of growth at 300 ppm is above 75% in the experiment with Pyricularia oryzae; above 80% with Rhizoctonia solani; above 80% in the experiment with Botrytis cinerea; above 75% in the experiment with Alternaria solani; above 80% in the experiment with Colletotrichum capsici; above 70% in the experiment with Septoria lycopersici. The inhibition of growth at 300 ppm in the experiment with Fusarium culmorum [1] worked out at 75%. Further, the inhibition at 300 ppm with Pyricularia oryzae, with Rhizoctonia solani, in the experiment on Botrytis cinerea, in the experiment on Alternaria solani, in the experiment with Colletotrichum capsici and with Fusarium culmorum [1] was 100% throughout. Moreover, 300 ppm produced 100% inhibition in the experiment with Corynespora cassicola. Also, the pest or weed control at 500 ppm with Fusarium culmorum [2] and with Botrytis cinera was 70 to 100% throughout.
